From US12398093B2, “Compounds and methods for treating inflammatory disorders” (Board of Supervisors of Louisiana State University and …, priority 2019, dated 2025)
Where two headings read alike, the source gives them in different places.

Assays:
[1] = target: T1, human 5-HT2A receptor (Homo sapiens, UniProt P28223); assay: Gq-mediated calcium transients (calcium mobilization), Fluo-4, HEK cells; assay type: cell-based
T1 construct: expressed in transfected cells

[2] = tested on: adult male Brown Norway rats; assay: Ovalbumin allergic asthma model, whole body plethysmography (ΔPenh) after methacholine challenge; assay type: in vivo; settings: for Prevention of AHR (ΔPenh/PenH) in response to OVA: rats
Description: A modification of the ovalbumin model of allergic asthma and whole body plethysmography protocol as described in Nau et al. (Am. J. Physiol. Lung Cell Mol. Physiol. 2015, 308(2): L191-L198; incorporated herein by reference) was used to determine ΔPenh, a measure of airways hyperresponsiveness (AHR), in response to methacholine challenge in adult male Brown Norway rats. Results, shown in FIGS. 2A-2G, represent PenH change measured in the ovalbumin allergic asthma assay in rats, with the exception of FIG. 2C, which was measured in mice, for nebulized inhaled drug. Statistics were performed using 2-way ANOVA with Tukey post hoc test for multiple comparisons.
Allergic asthma is defined as a chronic inflammatory disorder of the airways. This disease is characterized by airway inflammation, persistent airways AHR and intermittent, reversible airways obstruction.
Area under the curve of PenH values (PenH-AUC) in response to incremental doses of metacholine were calculated for each testing groups, naïve, OVA treated, and OVA+DRUG treated animals. A reduction in PenH-AUC values of more than 75% of the control values (OVA alone) was annotated as a strong efficacy. […] Additional to this information are provided the relative to R-DOI EC50 values (ratio) of tested compounds in 5-HT2AR heterologous cell-based calcium transient assay. […] FIG. 3 illustrates the non-correlative nature of the therapeutic efficacy of the phenylethylamines class of compounds against inflammatory-mediated allergen-induced AHR and the reported evidences of the dose necessary for psychoactive disturbances experienced with these compounds in humans or the potency and strength of these compounds to the 5-HT2AR in calcium transients assays.
Inhibition of ΔPenh as a function of 2C-iBu concentration was studied by nebulization nose-only administration of 2C-iBu to male adult Brown Norway rats as described above. Area under the curve for each treatment group at a given dose of 2C-iBu for ΔPenh is plotted on the Y-axis versus concentration of 2C-iBu on the X-axis.

[3] = target: T2, 5-HT1A (h) (Homo sapiens, UniProt P08908); assay: Radioligand binding, agonist radioligand [3H]8-OH-DPAT
T2 construct: membrane preparations
T2 sequence (P08908 1-422): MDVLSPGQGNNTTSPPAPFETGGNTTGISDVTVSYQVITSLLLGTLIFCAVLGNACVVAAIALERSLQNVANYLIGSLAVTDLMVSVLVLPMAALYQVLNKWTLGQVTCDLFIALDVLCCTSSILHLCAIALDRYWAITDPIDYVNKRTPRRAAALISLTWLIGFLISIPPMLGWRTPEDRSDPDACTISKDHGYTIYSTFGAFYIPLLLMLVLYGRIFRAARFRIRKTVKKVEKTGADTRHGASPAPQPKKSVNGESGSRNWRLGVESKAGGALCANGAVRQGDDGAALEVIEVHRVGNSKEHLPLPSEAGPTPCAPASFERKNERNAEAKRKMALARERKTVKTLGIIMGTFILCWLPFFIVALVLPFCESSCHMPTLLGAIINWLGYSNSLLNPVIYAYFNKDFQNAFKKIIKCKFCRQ

[4] = target: T3, 5-HT1D (Rattus norvegicus, UniProt P28565); assay: Radioligand binding, agonist radioligand [3H]serotonin; set-up: species or system human
T3 construct: membrane preparations

[5] = target: T4, 5-HT6 (h) (Homo sapiens, UniProt P50406); assay: Radioligand binding, agonist radioligand [3H]LSD
T4 construct: membrane preparations

[6] = target: T5, 5-HT7 (h) (Homo sapiens, UniProt P34969); assay: Radioligand binding, agonist radioligand [3H]LSD
T5 construct: membrane preparations

[7] = In vitro absorption, Caco-2 permeability; assay type: in vitro ADME; settings: human, Caco-2, pH 6.5, Caco-2, pH 6.5/7.4, 1.0×10^−5 M
[8] = log D at physiological pH; assay type: physicochemical; settings: pH 7.4
Description: This differential in the physico-chemical properties could be one of the drivers in the observed increased plasma protein binding capability of 2Ci-Bu in comparison to R-DOI and the moderate changes in the Caco-2 A-B/B-A permeability profiles.

[9] = target: 5-HT2A (h) (Homo sapiens, UniProt P28223); assay: Radioligand binding, agonist radioligand [125I](±)DOI
[10] = target: 5-HT2B (h) (Homo sapiens, UniProt P41595); assay: as above
[11] = HEK293, read-out: EMAX (%) calcium mobilization
[12] = read-out: A-B Permeability, 1st
[13] = read-out: A-B Permeability, 2nd
[14] = read-out: A-B Permeability, Mean
[15] = read-out: B-A Permeability, 1st
[16] = read-out: B-A Permeability, 2nd
[17] = read-out: B-A Permeability, Mean

T1 sequence (P28223 whole entry): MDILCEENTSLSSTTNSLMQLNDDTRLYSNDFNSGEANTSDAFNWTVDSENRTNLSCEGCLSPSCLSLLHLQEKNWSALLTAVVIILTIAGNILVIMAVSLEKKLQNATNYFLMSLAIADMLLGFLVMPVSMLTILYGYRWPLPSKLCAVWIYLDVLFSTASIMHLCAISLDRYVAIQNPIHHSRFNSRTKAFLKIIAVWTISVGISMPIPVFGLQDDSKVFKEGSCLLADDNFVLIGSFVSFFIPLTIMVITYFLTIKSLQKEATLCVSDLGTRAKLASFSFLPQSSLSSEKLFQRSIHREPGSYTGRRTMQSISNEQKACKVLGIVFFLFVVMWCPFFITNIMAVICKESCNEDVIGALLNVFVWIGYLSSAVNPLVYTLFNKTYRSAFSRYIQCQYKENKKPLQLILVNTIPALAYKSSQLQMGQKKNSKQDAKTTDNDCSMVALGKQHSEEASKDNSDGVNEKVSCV
Sequence of 5-HT2B (h) (P41595 whole entry): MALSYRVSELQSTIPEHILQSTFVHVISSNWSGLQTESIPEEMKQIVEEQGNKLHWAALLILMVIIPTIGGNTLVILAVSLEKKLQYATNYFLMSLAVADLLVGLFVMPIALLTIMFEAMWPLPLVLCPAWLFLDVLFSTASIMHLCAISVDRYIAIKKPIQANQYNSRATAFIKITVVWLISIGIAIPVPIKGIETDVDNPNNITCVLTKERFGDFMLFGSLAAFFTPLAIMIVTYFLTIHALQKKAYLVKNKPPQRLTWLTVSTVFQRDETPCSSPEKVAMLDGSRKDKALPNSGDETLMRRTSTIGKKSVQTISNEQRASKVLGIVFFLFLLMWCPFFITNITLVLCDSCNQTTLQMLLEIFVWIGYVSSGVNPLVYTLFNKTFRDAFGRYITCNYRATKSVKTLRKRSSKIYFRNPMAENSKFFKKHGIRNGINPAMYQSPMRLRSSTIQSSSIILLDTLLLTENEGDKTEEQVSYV
Sequence of 5-HT2A (h) (P28223 whole entry): as the sequence (P28223 whole entry) above
T3 sequence (P28565 whole entry): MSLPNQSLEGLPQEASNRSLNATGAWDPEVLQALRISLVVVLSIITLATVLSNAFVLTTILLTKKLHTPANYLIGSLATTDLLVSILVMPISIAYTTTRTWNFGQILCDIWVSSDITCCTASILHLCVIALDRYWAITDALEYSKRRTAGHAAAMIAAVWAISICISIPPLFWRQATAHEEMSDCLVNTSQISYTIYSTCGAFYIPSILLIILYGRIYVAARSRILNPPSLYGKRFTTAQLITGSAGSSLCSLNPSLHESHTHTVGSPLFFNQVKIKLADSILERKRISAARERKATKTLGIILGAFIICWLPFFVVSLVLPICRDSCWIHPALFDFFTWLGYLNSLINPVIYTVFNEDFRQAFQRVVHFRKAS
T4 sequence (P50406 whole entry): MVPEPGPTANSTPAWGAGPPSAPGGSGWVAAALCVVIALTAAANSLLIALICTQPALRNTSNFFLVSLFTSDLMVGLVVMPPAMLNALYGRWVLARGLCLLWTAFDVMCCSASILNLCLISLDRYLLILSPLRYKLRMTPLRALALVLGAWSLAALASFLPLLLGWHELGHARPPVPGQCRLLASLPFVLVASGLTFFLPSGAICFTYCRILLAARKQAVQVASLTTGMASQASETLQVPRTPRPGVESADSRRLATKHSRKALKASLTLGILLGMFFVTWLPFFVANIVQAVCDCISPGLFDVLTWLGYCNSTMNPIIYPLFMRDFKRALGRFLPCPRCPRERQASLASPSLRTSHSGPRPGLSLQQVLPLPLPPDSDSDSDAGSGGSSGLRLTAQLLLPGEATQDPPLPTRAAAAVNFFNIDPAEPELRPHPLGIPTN
T5 sequence (P34969 whole entry): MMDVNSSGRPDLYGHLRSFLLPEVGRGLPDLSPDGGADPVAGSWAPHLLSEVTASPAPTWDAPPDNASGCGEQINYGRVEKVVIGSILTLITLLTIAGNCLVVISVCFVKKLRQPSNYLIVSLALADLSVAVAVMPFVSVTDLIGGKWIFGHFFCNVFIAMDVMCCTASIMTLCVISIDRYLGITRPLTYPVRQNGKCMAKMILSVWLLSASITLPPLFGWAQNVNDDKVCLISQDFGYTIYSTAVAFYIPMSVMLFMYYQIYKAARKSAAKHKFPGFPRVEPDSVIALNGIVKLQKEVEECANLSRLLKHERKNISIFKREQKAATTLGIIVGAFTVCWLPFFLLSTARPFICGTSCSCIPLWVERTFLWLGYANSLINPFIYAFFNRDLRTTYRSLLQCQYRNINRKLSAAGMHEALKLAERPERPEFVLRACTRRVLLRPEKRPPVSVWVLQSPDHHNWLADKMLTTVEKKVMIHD

SMILES | Emax [1, 11] [%] | recovery ([7]; read-out: % Recovery A-B, 1st) [%] | recovery ([7]; read-out: % Recovery A-B, 2nd) [%] | recovery ([7]; read-out: % Recovery A-B, Mean) [%] | recovery ([7]; read-out: % Recovery B-A, 1st) [%] | recovery ([7]; read-out: % Recovery B-A, 2nd) [%] | recovery ([7]; read-out: % Recovery B-A, Mean) [%] | Papp A→B [7, 12] [×10⁻⁶ cm/s] | Papp A→B [7, 13] [×10⁻⁶ cm/s] | Papp A→B [7, 14] [×10⁻⁶ cm/s] | Papp B→A [7, 15] [×10⁻⁶ cm/s] | Papp B→A [7, 16] [×10⁻⁶ cm/s] | Papp B→A [7, 17] [×10⁻⁶ cm/s] | logD [8] | Ki [10] [nM] | further results
COc1cc(CC(C)C)c(OC)cc1CCN [2C-iBu, 2,5-dimethoxy-4-isobutylphenethylamine] | 88 | 45 | 48 | 46 | 70 | 72 | 71 | 10.9 | 10.6 | 10.7 | 7.87 | 7.92 | 7.9 | 1.64 | 15.8 | EC50 [1]: 2.19 nM; Emax ([1]; HEK293, read-out: EMAX Ca^2+): 103%; ED50 ([2]; Rattus norvegicus, nebulization nose-only administration, rats (FIG. 4), read-out: ED50, inhibition of ΔPenh (AUC)): 2.7 µg/kg; Prevention of AHR (ΔPenh/PenH) in response to OVA ([2]; dose not printed (FIG. 2G)): did not result in a decrease in efficacy compared to (R)-DOI; Ki [3]: 79.4 nM; Ki [4]: 63.1 nM; Ki [5]: 1260 nM; Ki [6]: 316 nM; Ki [9]: 1.26 nM
COc1cc(C[C@@H](C)N)c(OC)cc1I [R-DOI] | 112 | 72 | 72 | 72 | 87 | 88 | 87 | 23.7 | 23.2 | 23.4 | 19.1 | 19.3 | 19.2 | 1.04 | 2.51 | Prevention of AHR (ΔPenh/PenH) in response to OVA ([2]; 1.0 mg/kg, nebulized inhaled drug): full efficacy at preventing AHR
